Reference: patent US9308161B2, “Substance for restoring normal co-expression and interaction between the LOX and NRAGE proteins” (BASF Beauty Care Solutions France S.A.S., priority 2005, dated 2016)
Values joined by “and” are separate entries in the source; they are usually repeats but may differ in a detail not shown here. Identical values can stand only once.

How the values were obtained:
[1] = tested on: differentiated human keratinocytes; assay: Apoptosis by TUNEL in monolayer cultures of differentiated human keratinocytes, LOX activity inhibited; format: cell-based
Procedure: The study was carried out on monolayer cultures of differentiated human keratinocytes at confluence. The effect of LOX on apoptosis was identified by inhibiting its activity through the addition of β-APN (0.02% w/v—(weight/volume)) under normal or proapoptotic conditions (thermal shock caused by exposure to a temperature of 45° C.±0.5° C. for 1 h 30 min).
Cell death by apoptosis is detected and quantified using the TUNEL (terminal deoxynucleotidyl transferase mediated dUTP nick end labeling) technique, which is based on labeling of the […] accompanying apoptosis.
The first step consists in labeling the DNA breaks with TdT (terminal deoxynucleotidyl transferase), which catalyzes the polymerization of the fluorescein-labeled nucleotides at the free 3′-OH end of the DNA. The second step consists in detecting the incorporated fluorescein with an alkaline phosphatase-conjugated anti-fluorescein antibody after incubation with the substrate for the latter.
The experiment is validated by means of a positive control obtained by fragmentation of the DNA with a DNase solution, and a negative control obtained by depositing phosphate buffer.

LOX = LOX messenger RNA by quantitative RT-PCR, keratinocytes in culture in the absence of calcium differentiation (Example 15); format: cell-based, human; conditions: mRNA relative to actine vs untreated control (NT); 24 hours; no calcium differentiation; 0.1% to 1% (v/v)
Procedure: The actives were tested on normal human keratinocytes from young subjects, obtained by enzymatic extraction of human biopsies collected after surgical resection and cultivated as monolayers in a K-SFM (keratinocyte serum free medium with supplements) defined medium, supplemented with antibiotics at 37° C. under 5% CO2. The cells are sown at the second passage in 24-well plates, for example with an amount of 30 000 cells per cm^2 and grown until about 95% confluence. […] Active ingredients of different origins (vegetable, biotechnological origin or synthesized molecules for example) are tested from 0.1% volume/volume (v/v) to 1% (v/v). An active ingredient from vegetable origin is tested for example at 1% (v/v) and a synthesized molecule is tested for example at 0.1% (v/v) […] The obtained extracts are then filtered or distilled in order to recover the soluble fraction which is then filtered at 0.45 μm preferably. The biotechnological hydrolysates are obtained by fermentation of vegetable extracts in the presence of microorganisms, advantageously from the Lactobacillus or Saccharomyces family. These hydrolysates are then preferably filtered to 0.45 μm. The incubation is advantageously performed for 24 hours at 37° C. under 5% CO2, in a K-SFM medium without growth factors but with antibiotics. The negative controls are either the culture medium by itself, or the culture medium containing from 0.1% (v/v) to 1% (v/v) of the solvent used during the method for extracting the tested extracts. […] The untreated cells (NT control) are dry frozen at -80° C. after rinsing with pH 7.4 phosphate buffer. […] Modification of the expression of the genes is achieved by real time RT-PCR which measures the expression of each gene relative to actine (housekeeping gene) and expressed as a % of the untreated negative control (NT). […] According to the experimentation, the measuring threshold of C(T) (=cycle threshold) was set for T between 0.05 and 0.01 and then an arbitrary measuring unit is calculated for each gene according to the formula: […] […]

transglutaminase = assay: Transglutaminase immunolabelling intensity in reconstructed skin model (MIMESKIN); format: cell-based, human; conditions: positive control, calcium chloride 1.5 mM
Procedure: The reconstructed skin model is in particular achieved according to the following protocol: • 0.5 to 1.10^6 fibroblasts of normal human skin are sown on a matrix substrate based on collagen/glycosaminoglycan/chitosan, and then grown in a nutritive medium, for example DMEM-Glutamax supplemented with 10% of calf serum; ascorbic acid, preferably at a final concentration of 1 mM; EGF (epidermal grow factor), preferably at a final concentration of 10 ng/ml; Normocin, preferably at a final concentration of 100 μg/ml, for 21 days. • 0.5 to 1.10^6 […], and then grown in a nutritive medium, for example DMEM-Glutamax/Ham F-12 (ratio 3:1 v/v) supplemented with calf serum, ascorbic acid, preferably at a final concentration of 1 mM; EGF (epidermal growth factor), preferably at a final concentration of 10 ng/ml; hydrocortisone, preferably at a final concentration of 0.4 μg/ml; umuline, preferably at a final concentration of 0.12 IU/ml; isuprel, preferably at a final concentration of […]; triiodothyronine, preferably at a final concentration of 2.10^−9M; adenine, preferably at a final concentration of 24.3 μg/ml; Normocin, preferably at a final concentration of 100 μg/ml. The culture was continued for 7 days in an immersed condition. The cultures were then placed at the air-liquid interface for 14 additional days in the same medium as the immersion culture, except for the calf serum, hydrocortisone, isuprel, triidothyronine and umuline.
The active ingredient (ephedra extract) is advantageously diluted in the culture media described above at 0.5 and 1% and used 3 days after the respective sowing of fibroblasts and keratinocytes (i.e. days 3 to 21 and days 24 to 42). […]
Viewing of immunolabellings is performed under photon microscopy (Axioskop2plus—Zeiss, Germany) and quantification of the transglutaminase immunolabellings was performed by image analysis (Lucia—Nilon, France) and the effects of the treatment with the active ingredient are evaluated (Holm-Sidak statistical test, p<0.01).

N#CCCN [β-APN, β-aminopropionitrile]
Without thermal shock (% of labeled cells) ([1]; TUNEL, β-APN 0.02% w/v, normal conditions): 56% of labeled cells | With thermal shock (% of labeled cells) ([1]; TUNEL, β-APN 0.02% w/v, thermal shock 45° C.±0.5° C. for 1 h 30 min): 81% of labeled cells | effect on apoptosis ([1]; inhibition of the enzymatic activity of LOX by β-APN): substantial increase in apoptosis

CCC(C)C(=O)OC (stereo not drawn) [Methyl 2 methyl butyrate]
LOX modulation vs NT (LOX): 2.5

OC[C@@H](O)[C@H](O)[C@@H](O)CO [Xylitol]
LOX modulation vs NT (LOX): 2.8

CC/C=C/CC(=O)OCC [Ethyl trans 3-hexanoate]
LOX modulation vs NT (LOX): 2.3

[Ca+2].[Cl-].[Cl-] [Calcium, calcium chloride]
INTENSITY Average (transglutaminase): 0.067 | Variation vs NT (transglutaminase): 59% | INTENSITY of transglutaminase labelling (single values) (transglutaminase; day 28-42): 0.061 and 0.076 and 0.064
